Test results reported in patent publication US20050208139A1 (Ascend Therapeutics, Inc., priority 2004, published 2005).

Assay: Isomerization of 4-hydroxy tamoxifen in hydroalcoholic solutions at 25°, 30° and 40° C., Z/E isomers by HPLC (Example 1)
Type: physicochemical
Description: Hydroalcoholic solutions containing 4-hydroxy tamoxifen were prepared, based on the following gel formula: […]
In the hydroalcoholic solutions, phosphate buffer was substituted for Klucel. The composition of the buffer was as follows:
At each of the stated concentrations, separate solutions containing Z-4-hydroxy tamoxifen or a mixture of Z- and E-4-hydroxy tamoxifen were prepared.
Each solution was subdivided into three parts in 30 ml brown glass bottles, then placed in ovens regulated at 25°, 30°, and 40° C.
The relative amounts of Z- and E-4-hydroxy tamoxifen isomers were determined at the initiation of the study and at 2-week, 1-month, 2-month, 3-month, 4-month and 5-month time points.
Operating parameters for the HPLC were as follows:
The order of elution was as follows: • 4-OHT E: retention time about 13.3 min • 4-OHT Z: retention time about 15.0 min.
Percentages of each isomer were calculated using the following formulas: [formula] [formula] D. Data fitting:
The reversible isomerization reaction and the equilibrium reaches are lied by the following relationship: [formula] where • A0=initial concentration of the reagent • Aeq=concentration of the same reagent at equilibrium • A=the concentration of A at time t • kf=forward rate constant • kr=reverse rate constant • t=time measured in months
A plot of log [formula] as a function of time gives a straight line fit with a slope of [formula] and a y-intercept of 0. E. Results

[1] = 25° C., nominal 4-hydroxy tamoxifen concentration (Z + E) in solution 0.02%
[2] = 25° C., nominal concentration (Z + E) 0.04%
[3] = 25° C., nominal concentration (Z + E) 0.06%
[4] = 25° C., nominal concentration (Z + E) 0.08%
[5] = 25° C., nominal concentration (Z + E) 0.10%
[6] = 30° C., nominal concentration (Z + E) 0.02%
[7] = 30° C., nominal concentration (Z + E) 0.04%
[8] = 30° C., nominal concentration (Z + E) 0.06%
[9] = 30° C., nominal concentration (Z + E) 0.08%
[10] = 30° C., nominal concentration (Z + E) 0.10%
[11] = 40° C., nominal concentration (Z + E) 0.02%
[12] = 40° C., nominal concentration (Z + E) 0.04%
[13] = 40° C., nominal concentration (Z + E) 0.06%
[14] = 40° C., nominal concentration (Z + E) 0.08%
[15] = 40° C., nominal concentration (Z + E) 0.10%

Row | Structure (SMILES) | Rate constant [1] [month^−1] | Rate constant [2] [month^−1] | Rate constant [3] [month^−1] | Rate constant [4] [month^−1] | Rate constant [5] [month^−1] | Rate constant [6] [month^−1] | Rate constant [7] [month^−1] | Rate constant [8] [month^−1] | Rate constant [9] [month^−1] | Rate constant [10] [month^−1] | Rate constant [11] [month^−1] | Rate constant [12] [month^−1] | Rate constant [13] [month^−1] | Rate constant [14] [month^−1] | Rate constant [15] [month^−1]
1 | CC/C(=C(\c1ccc(O)cc1)c1ccc(OCCN(C)C)cc1)c1ccccc1 [Batch PANCHIM 7421] | 0.0225 | 0.0637 | 0.0886 | 0.1352 | 0.1827 | 0.0457 | 0.0864 | 0.1487 | 0.1900 | 0.2568 | 0.1097 | 0.2287 | 0.3877 | 0.5311 | 0.6300
2 | CC/C(=C(\c1ccc(O)cc1)c1ccc(OCCN(C)C)cc1)c1ccccc1 [ICI batch Bx 17] | 0.0347 | 0.0484 | 0.0916 | 0.1476 | 0.2169 | 0.0254 | 0.0801 | 0.1563 | 0.2718 | 0.3103 | 0.0722 | 0.2323 | 0.3924 | 0.5095 | 0.6960
